Experimental data taken from PMC7614683, “A small molecule PI3Kα activator for cardioprotection and neuroregeneration” (Nature, 2023).
Read-outs that look alike come from different tables or passages of the source.

What was measured:
Test in all cases: SelectScreen Z-LYTE kinase activity assay (SI Table 6)
Format in all cases: biochemical
[1] = molecular target: protein kinases of the Z-LYTE panel (Homo sapiens, UniProt P00519)
In short: (§1)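 Single-point profiling, 1 μM 1938; LanthaScreen binding, Adapta or Z-LYTE read-outs; 133 protein + 7 lipid kinases.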

[2] = molecular target: protein kinases of the Z-LYTE panel (Homo sapiens, UniProt P17612)
In short: as §1

[3] = molecular target: T1, protein kinases of the Z-LYTE panel (Homo sapiens, UniProt P51955)
T1 sequence (P51955 1-445): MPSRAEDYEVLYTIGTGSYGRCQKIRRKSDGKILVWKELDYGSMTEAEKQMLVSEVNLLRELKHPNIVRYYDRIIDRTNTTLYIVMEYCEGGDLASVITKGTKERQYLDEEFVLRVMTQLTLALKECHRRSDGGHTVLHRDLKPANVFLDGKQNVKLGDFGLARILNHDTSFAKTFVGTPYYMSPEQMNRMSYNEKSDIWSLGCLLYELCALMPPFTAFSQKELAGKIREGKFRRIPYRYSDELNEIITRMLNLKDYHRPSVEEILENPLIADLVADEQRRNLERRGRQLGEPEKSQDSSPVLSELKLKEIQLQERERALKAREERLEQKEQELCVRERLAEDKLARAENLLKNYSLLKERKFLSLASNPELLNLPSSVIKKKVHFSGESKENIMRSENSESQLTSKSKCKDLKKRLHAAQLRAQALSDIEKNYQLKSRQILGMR
In short: as §1

[4] = molecular target: T2, protein kinases of the Z-LYTE panel (Homo sapiens, UniProt P52333)
T2 sequence (P52333 1-1124): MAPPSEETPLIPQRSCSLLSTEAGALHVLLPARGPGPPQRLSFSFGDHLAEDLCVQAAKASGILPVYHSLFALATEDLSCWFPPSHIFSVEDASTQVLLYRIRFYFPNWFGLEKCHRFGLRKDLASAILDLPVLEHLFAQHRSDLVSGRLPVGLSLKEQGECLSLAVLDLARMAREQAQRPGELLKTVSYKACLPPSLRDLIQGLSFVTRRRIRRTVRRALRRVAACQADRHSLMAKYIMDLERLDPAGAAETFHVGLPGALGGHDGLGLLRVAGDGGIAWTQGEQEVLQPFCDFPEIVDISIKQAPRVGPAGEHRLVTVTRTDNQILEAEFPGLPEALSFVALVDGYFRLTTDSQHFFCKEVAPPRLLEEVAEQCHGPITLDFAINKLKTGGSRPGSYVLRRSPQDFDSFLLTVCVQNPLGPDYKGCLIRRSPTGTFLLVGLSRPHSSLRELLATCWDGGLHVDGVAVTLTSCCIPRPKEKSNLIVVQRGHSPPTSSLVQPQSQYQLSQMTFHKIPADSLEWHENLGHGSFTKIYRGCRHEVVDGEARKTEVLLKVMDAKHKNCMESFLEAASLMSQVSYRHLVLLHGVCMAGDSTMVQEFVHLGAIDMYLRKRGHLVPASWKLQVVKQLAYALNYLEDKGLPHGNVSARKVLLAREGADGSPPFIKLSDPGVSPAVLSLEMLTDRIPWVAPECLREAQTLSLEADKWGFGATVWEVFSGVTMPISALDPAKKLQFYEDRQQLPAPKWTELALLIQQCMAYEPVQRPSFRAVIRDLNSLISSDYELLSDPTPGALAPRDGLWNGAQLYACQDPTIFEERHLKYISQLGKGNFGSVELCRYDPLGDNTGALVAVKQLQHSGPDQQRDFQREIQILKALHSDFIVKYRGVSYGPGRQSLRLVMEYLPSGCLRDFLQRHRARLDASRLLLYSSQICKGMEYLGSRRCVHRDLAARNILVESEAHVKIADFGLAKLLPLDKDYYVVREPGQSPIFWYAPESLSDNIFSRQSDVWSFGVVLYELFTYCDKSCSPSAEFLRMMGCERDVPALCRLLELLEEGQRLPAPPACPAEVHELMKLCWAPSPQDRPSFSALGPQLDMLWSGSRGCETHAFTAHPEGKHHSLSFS
In short: as §1

[5] = molecular target: protein kinases of the Z-LYTE panel (Homo sapiens, UniProt Q05397)
In short: as §1

[6] = molecular target: protein kinases of the Z-LYTE panel (Homo sapiens, UniProt Q06187)
In short: as §1

Sequence of protein kinases of the Z-LYTE panel (Homo sapiens, UniProt Q05397) (Q05397 whole entry): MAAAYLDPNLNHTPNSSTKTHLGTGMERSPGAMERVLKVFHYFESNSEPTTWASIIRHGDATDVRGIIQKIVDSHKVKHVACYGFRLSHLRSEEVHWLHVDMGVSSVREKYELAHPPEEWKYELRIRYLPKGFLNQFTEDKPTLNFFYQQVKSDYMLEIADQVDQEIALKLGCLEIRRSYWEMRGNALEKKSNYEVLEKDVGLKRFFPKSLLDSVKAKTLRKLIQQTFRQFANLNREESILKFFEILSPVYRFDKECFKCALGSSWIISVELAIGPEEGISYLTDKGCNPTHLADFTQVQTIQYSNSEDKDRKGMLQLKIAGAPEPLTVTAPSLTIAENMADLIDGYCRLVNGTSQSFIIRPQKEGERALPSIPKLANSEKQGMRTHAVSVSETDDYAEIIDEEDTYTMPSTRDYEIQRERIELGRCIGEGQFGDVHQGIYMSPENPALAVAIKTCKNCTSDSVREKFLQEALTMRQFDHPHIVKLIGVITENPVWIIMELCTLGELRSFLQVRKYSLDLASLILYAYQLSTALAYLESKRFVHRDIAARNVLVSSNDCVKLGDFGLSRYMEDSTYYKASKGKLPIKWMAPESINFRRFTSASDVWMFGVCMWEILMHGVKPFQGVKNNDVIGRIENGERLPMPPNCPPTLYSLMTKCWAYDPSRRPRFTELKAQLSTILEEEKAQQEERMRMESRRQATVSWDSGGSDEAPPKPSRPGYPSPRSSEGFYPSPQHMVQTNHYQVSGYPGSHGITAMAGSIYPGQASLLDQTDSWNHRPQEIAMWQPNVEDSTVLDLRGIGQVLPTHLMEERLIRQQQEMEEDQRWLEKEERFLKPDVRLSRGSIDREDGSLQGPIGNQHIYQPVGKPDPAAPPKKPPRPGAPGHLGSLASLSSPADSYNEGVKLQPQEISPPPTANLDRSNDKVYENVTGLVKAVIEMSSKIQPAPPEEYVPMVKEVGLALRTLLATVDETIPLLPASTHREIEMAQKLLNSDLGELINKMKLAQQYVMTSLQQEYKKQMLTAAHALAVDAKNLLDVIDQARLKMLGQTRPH
Sequence of protein kinases of the Z-LYTE panel (Homo sapiens, UniProt P00519) (P00519 whole entry): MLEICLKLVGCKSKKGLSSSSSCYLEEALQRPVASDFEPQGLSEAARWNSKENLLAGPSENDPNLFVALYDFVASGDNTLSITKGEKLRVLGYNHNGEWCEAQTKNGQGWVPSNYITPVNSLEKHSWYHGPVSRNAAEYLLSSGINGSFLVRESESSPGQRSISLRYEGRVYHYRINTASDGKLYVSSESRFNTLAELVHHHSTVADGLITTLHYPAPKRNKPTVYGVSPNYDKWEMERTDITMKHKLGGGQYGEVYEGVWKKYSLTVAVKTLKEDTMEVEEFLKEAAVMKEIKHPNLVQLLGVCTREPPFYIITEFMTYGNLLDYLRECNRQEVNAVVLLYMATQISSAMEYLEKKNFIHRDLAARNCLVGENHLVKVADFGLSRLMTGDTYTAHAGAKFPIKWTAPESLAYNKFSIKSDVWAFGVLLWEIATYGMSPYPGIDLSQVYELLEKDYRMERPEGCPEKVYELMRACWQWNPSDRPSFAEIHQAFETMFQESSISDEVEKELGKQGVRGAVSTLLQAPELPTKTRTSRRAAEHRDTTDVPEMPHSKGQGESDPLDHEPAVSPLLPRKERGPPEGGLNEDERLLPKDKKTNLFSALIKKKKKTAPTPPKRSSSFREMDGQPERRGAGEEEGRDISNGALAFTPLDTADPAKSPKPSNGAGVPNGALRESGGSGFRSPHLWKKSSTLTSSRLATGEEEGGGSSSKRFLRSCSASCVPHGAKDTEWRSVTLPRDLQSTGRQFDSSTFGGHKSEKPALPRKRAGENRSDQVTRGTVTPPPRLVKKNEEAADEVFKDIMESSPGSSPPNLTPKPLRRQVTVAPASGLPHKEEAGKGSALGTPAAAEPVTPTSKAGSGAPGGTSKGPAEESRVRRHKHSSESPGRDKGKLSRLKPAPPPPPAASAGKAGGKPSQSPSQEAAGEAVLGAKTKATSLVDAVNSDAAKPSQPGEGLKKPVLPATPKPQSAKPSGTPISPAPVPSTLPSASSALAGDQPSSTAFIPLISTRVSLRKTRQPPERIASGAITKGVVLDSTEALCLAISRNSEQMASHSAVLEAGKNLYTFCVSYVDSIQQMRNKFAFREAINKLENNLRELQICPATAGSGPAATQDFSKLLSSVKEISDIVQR
Sequence of protein kinases of the Z-LYTE panel (Homo sapiens, UniProt Q06187) (Q06187 whole entry): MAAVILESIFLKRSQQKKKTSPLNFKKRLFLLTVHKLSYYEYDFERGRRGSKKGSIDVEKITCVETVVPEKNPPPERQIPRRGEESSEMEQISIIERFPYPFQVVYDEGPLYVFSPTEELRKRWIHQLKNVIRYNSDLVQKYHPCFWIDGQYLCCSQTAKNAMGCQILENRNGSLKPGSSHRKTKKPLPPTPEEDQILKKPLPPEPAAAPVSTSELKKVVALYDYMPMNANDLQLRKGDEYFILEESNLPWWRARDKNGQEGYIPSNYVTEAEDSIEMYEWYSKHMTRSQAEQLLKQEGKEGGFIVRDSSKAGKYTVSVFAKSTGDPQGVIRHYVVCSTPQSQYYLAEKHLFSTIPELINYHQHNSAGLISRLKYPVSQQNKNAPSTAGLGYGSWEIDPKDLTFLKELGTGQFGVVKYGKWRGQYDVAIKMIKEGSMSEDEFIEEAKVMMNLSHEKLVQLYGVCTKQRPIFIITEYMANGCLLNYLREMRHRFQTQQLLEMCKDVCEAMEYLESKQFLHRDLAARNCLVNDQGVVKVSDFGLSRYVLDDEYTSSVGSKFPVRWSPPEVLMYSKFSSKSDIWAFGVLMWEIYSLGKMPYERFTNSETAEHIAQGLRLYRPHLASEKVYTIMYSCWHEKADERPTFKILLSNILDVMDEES

CCN1CCN(c2ccc(Nc3cc(Nc4cccc5c4N(C(C)=O)CC5)ccn3)cc2)CC1 [Compound 1938]
inhibition at 1 µM ([1]; read-out: % Inhibition Point 1): 16% | inhibition at 1 µM ([1]; read-out: % Inhibition Point 2): 17% | inhibition at 1 µM ([1]; read-out: % Inhibition mean): 16% | inhibition at 1 µM ([2]; read-out: % Inhibition Point 1): 3% | inhibition at 1 µM ([2]; read-out: % Inhibition Point 2): 5% | inhibition at 1 µM ([2]; read-out: % Inhibition mean): 4% | inhibition at 1 µM ([3]; read-out: % Inhibition Point 1): -6% | inhibition at 1 µM ([3]; read-out: % Inhibition Point 2): -5% | inhibition at 1 µM ([3]; read-out: % Inhibition mean): -5.54% | inhibition at 1 µM ([4]; read-out: % Inhibition Point 1): 3% | inhibition at 1 µM ([4]; read-out: % Inhibition Point 2): 1.12% | inhibition at 1 µM ([4]; read-out: % Inhibition mean): 2% | inhibition at 1 µM ([5]; read-out: % Inhibition Point 1): 47% | inhibition at 1 µM ([5]; read-out: % Inhibition Point 2): 47% | inhibition at 1 µM ([5]; read-out: % Inhibition mean): 47% | inhibition at 1 µM ([6]; read-out: % Inhibition Point 1): 9% | inhibition at 1 µM ([6]; read-out: % Inhibition Point 2): 8% | inhibition at 1 µM ([6]; read-out: % Inhibition mean): 9%
